Measured values from patent US10052320B2, “Substituted quinoxalines as FGFR kinase inhibitors” (ASTEX THERAPEUTICS LIMITED, priority 2011, dated 2018).

Assays:
[1] = tested on: Ba/F3-KDR-transfected cells in the presence of 10 ng/ml murine IL3; assay: Ba/F3-KDR (plus IL3) cellular proliferation counterscreen, Alamar Blue; type: cell-based; conditions: plus 10 ng/ml murine IL3; for IC50: Mus musculus, read-out: BAF3-KDR (PLUS IL3) 384 well pIC50 (converted)
Description: Ba/F3-KDR (Minus IL3 or Plus IL3) (Cellular Proliferation Assay)
[…] Cells were put in an incubator at 37° C. and 5% CO2. After 24 hours, 10 μl of Alamar Blue solution (0.5 mM K3Fe(CN)6, 0.5 mM KaFe(CN)6, 0.15 mM Resazurin and 100 mM Phosphate Buffer) was added to the wells, incubated for 4 hours at 37° C. and 5% CO2 before RFU's (Relative Fluorescence Units) (ex. 540 nm., em. 590 nm.) were measured in a flurorescence plate reader.
As a counterscreen the same experiment was performed in the presence of 10 ng/ml murine IL3.
(§1) In a 96 well plate, 180 μl cell culture medium (phenol red free RPMI-1640, 10% FBS, 2 mM L-Glutamine and 50 μg/ml Gentamycin) containing 10000 cells per well of Ba/F3-KDR-transfected cells were pipette and 20 μl of compound dilution in DMSO was added. Cells were put in an incubator at 37° C. and 5% CO2. After 24 hours, 40 μl of Alamar Blue solution (0.5 mM K3Fe(CN)6, 0.5 mM KaFe(CN)6, 0.15 mM Resazurin and 100 mM Phosphate Buffer) was added to the wells, incubated for 4 hours at 37° C. and 5% CO2 RFU's (Relative Fluorescence Units) (ex. 540 nm., em. 590 nm.) were measured in a flurorescence plate reader.

[2] = molecular target: Ba/F3-FGFR1-transfected cells (Homo sapiens, UniProt P11362); assay: Ba/F3-FGFR1 (minus IL3) cellular proliferation assay, Alamar Blue; type: cell-based; conditions: minus IL3, 384 well
Ba/F3-FGFR1-transfected cells, sequence (P11362 whole entry, change not shown): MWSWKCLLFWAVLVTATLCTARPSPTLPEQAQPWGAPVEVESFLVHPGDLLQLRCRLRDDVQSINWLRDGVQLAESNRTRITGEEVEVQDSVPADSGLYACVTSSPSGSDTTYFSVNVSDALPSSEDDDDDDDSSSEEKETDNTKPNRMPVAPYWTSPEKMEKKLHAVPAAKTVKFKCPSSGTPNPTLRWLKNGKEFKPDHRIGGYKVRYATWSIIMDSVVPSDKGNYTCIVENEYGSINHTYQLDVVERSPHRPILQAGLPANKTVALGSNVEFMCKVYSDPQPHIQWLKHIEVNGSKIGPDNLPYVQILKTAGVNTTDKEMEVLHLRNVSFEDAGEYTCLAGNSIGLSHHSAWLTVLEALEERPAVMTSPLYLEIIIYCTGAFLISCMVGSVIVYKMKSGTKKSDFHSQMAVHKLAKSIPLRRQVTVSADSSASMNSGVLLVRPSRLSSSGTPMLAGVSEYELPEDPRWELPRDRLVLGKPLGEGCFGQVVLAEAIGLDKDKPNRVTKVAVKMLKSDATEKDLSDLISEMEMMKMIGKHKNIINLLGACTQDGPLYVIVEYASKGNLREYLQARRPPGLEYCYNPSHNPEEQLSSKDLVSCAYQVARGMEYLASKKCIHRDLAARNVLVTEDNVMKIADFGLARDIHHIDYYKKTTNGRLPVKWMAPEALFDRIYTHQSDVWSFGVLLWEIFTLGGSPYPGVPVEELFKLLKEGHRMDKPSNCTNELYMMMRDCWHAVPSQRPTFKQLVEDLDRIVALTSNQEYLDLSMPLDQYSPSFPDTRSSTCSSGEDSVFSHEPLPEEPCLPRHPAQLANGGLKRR
Description: Ba/F3-FGFR1 (Minus IL3 or Plus IL3) (Cellular Proliferation Assay)
Cells were put in an incubator at 37° C. and 5% CO2. After 24 hours, 10 μl of Alamar Blue solution (0.5 mM K3Fe(CN)6, 0.5 mM KaFe(CN)6, 0.15 mM Resazurin and 100 mM Phosphate Buffer) was added to the wells, incubated for 4 hours at 37° C. and 5% CO2 before RFU's (Relative Fluorescence Units) (ex. 540 nm., em. 590 nm.) were measured in a flurorescence plate reader. […]
as §1, with “well of Ba/F3-FGFR1-transfected cells were” for “well of Ba/F3-KDR-transfected cells were”, “5% CO2 before RFU's (Relative” for “5% CO2 RFU's (Relative”

| Structure (SMILES) | BAF3-FGFR 1 (MIN IL3) 384 well pIC50 [2] | IC50 [1] | BAF3-KDR (PLUS IL3) 384 well pIC50 [1] |
| --- | --- | --- | --- |
| COCC(O)CN(c1cc(OC)cc(OC)c1)c1ccc2ncc(-c3cccnc3)nc2c1 (single isomer, unassigned) [Compound 46] | 6.49 | > 10 µM |  |
| COCC(CN(c1cc(OC)cc(OC)c1)c1ccc2ncc(-c3cccnc3)nc2c1)OC(C)=O (single isomer, unassigned) [Compound 52] | 5.96 |  |  |
| COCC(CN(c1cc(OC)cc(OC)c1)c1ccc2ncc(-c3cccnc3)nc2c1)OC(C)=O (single isomer, unassigned) [Compound 76] | 6.3 |  | <5 |
| COc1cc(OC)cc(N(CC#Cc2ncccn2)c2ccc3ncc(-c4cccnc4)nc3c2)c1 [Compound 2] | 6.8 |  |  |
| COc1cc(OC)cc(N(CCCNCC(F)(F)F)c2ccc3ncc(-c4cnc(OC)nc4)nc3c2)c1 [Compound 26] | 5.13 | > 10 µM |  |
| CO/N=C(\C)c1cnc2ccc(N(CCO)c3cc(OC)cc(OC)c3)cc2n1 [Compound 29] | 6.41 | > 10 µM |  |
| COc1cc(OC)cc(N(CCN2CCOCC2)c2ccc3ncc(-c4ccc(NC(=O)N5CCOCC5)nc4)nc3c2)c1 [Compound 35] | 6.36 | > 10 µM |  |
| COc1cc(OC)cc(N(CCN2CCNCC2)c2ccc3ncc(-c4ccc(N)nc4)nc3c2)c1 [Compound 59] | 6.22 |  |  |
| COc1cc(OC)cc(N(CCNC(C)C)c2ccc3ncc(N4CCC(CN)CC4)nc3c2)c1 [Compound 67] | 6.23 | > 10 µM |  |
| COc1cc(OC)cc(N(CCN2CCN(C(C)=O)CC2)c2ccc3ncc(-c4ccc(N)nc4)nc3c2)c1 [Compound 68] | 6.13 | > 10 µM |  |
| COc1cc(OC)cc(N(CCNC(C)C)c2ccc3ncc(-n4cnc(CO)c4)nc3c2)c1 [Compound 77] | 7.12 | > 10 µM |  |
| COc1cc(OC)cc(N(CCO)c2ccc3ncc(N4CCC(CN)CC4)nc3c2)c1 [Compound 84] | 5.05 |  |  |
| COc1cc(OC)cc(N(CC2CC2)c2ccc3ncc(-c4ccc5c(c4)OCO5)nc3c2)c1 [Compound 87] | <5.4 |  |  |
| COc1cc(OC)cc(N(CCO)c2ccc3ncc(-c4ccc(N5CCN(C(=O)OC(C)(C)C)CC5)cc4)nc3c2)c1 [Compound 156] | 5.7 | > 10 µM |  |
| COc1cc(OC)cc(N(CCCNCC(F)(F)F)c2ccc3ncc(C(=O)NCCN4CCOCC4)nc3c2)c1 [Compound 158] | <5 | > 10 µM |  |
| COc1cc(OC)cc(N(CCNC(C)C)c2ccc3ncc(C(=O)NCCCN4CCN(C)CC4)nc3c2)c1 [Compound 159] | 5.74 | > 10 µM |  |
| COc1cc(OC)cc(N(CCNC(C)C)c2ccc3ncc(C(=O)NCCN4CCOCC4)nc3c2)c1 [Compound 160] | 5.86 | > 10 µM |  |
| COc1cc(OC)cc(N(CCNC(C)C)c2ccc3ncc(NCC4CCNCC4)nc3c2)c1 [Compound 161] | 5.42 | > 10 µM |  |
| COc1cc(OC)cc(N(CCO)c2ccc3ncc(-c4ccc(N5CCNCC5)cc4)nc3c2)c1 [Compound 166] |  | 6.03 µM |  |
| COc1cc(OC)cc(N(CCNC(C)C)c2ccc3ncc(-n4cnc(COC(C)=O)c4)nc3c2)c1 [Compound 167] | 7.13 | > 10 µM |  |

Continued, in another order:

| BAF3-FGFR 1 (MIN IL3) 384 well pIC50 [2] | Structure (SMILES) | IC50 [1] | BAF3-KDR (PLUS IL3) 384 well pIC50 [1] |
| --- | --- | --- | --- |
| 6.29 | COCC(O)CN(c1cc(OC)cc(OC)c1)c1ccc2ncc(-c3cccnc3)nc2c1 (single isomer, unassigned) [Compound 47] |  | <5 |
| 5.99 | COc1cc(OC)cc(N(CCCNCC(F)(F)F)c2ccc3ncc(-c4ccn(C)c4)nc3c2)c1 [Compound 5] |  |  |
| 6.41 | COc1cc(OC)cc(N(CCO)c2ccc3ncc(-c4ccc(N5CCOCC5)nc4)nc3c2)c1 [Compound 19] |  |  |
| 6.31 | COc1cc(OC)cc(N(CCO)c2ccc3ncc(-n4cnc(CO)c4)nc3c2)c1 [Compound 38] |  |  |
| 6.28 | COc1cc(OC)cc(N(CCCO)c2ccc3ncc(-c4ccnc(C(=O)N5CCOCC5)c4)nc3c2)c1 [Compound 43] |  |  |
| <5 | COc1cc(OC)cc(N(CCCNCC(=O)O)c2ccc3ncc(-c4ccnc(C(=O)NCCCCN)c4)nc3c2)c1 [Compound 44] |  |  |
| 6.9 | COc1cc(OC)cc(N(CCN)c2ccc3ncc(-c4ccn(C)c4)nc3c2)c1 [Compound 79] | > 10 µM |  |
| 5.62 | CNc1ccc(-c2cnc3ccc(N(CCCNCC(F)(F)F)c4cc(OC)cc(OC)c4)cc3n2)cn1 [Compound 129] | > 10 µM |  |
| 5.1 | COc1cc(OC)cc(N(CCCO)c2ccc3ncc(-c4ccnc(C(=O)NCCCCCN)c4)nc3c2)c1 [Compound 130] |  |  |
| 6.44 | COc1cc(OC)cc(N(CCCNC(C)C)c2ccc3ncc(-c4ccnc(NC(=O)NC(C)C)c4)nc3c2)c1 [Compound 131] |  |  |
| 5.8 | COc1cc(OC)cc(N(CCCNCCCO)c2ccc3ncc(-c4ccnc(C(=O)NCCCCN)c4)nc3c2)c1 [Compound 132] |  |  |
| <5 | COc1cc(OC)cc(N(CCCO)c2ccc3ncc(-c4ccnc(-c5ccnc(Cl)c5)c4)nc3c2)c1 [Compound 133] |  |  |
| 6.42 | COc1cc(OC)cc(N(CCCO)c2ccc3ncc(-c4cnc(N5CCN(C)CC5)c(C)c4)nc3c2)c1 [Compound 135] |  |  |
| 5.63 | COc1cc(OC)cc(N(CCCO)c2ccc3ncc(-c4ccnc(Cl)c4)nc3c2)c1 [Compound 136] |  |  |
| 5.75 | COc1cc(OC)cc(N(CCCNC(C)C)c2ccc3ncc(-c4ccnc(NC(=O)OC(C)(C)C)c4)nc3c2)c1 [Compound 137] |  |  |
| <5 | COc1cc(OC)cc(N(CCO)c2ccc3ncc(-c4ccnc(C(=O)NCCCCCN)c4)nc3c2)c1 [Compound 138] |  |  |
| 5.35 | COc1cc(OC)cc(N(CCO)c2ccc3ncc(-c4ccnc(C(=O)NCCCCCO)c4)nc3c2)c1 [Compound 139] | > 10 µM |  |
| 5.64 | COc1cc(OC)cc(N(CCCO)c2ccc3ncc(-c4ccnc(F)c4)nc3c2)c1 [Compound 142] | > 10 µM |  |
| 6.56 | COc1cc(OC)cc(N(CCCNC(C)C)c2ccc3ncc(-c4ccnc(N)c4)nc3c2)c1 [Compound 143] |  |  |
| <5 | COc1cc(OC)cc(N(CCCNCC(F)(F)F)c2ccc3ncc(-c4ccnc(F)c4)nc3c2)c1 [Compound 144] |  |  |
| <5 | COc1cc(OC)cc(N(CCCNCC(F)(F)F)c2ccc3ncc(-c4ccnc(Cl)c4)nc3c2)c1 [Compound 145] | > 10 µM |  |
| 6.46 | COc1cc(OC)cc(N(CCNC(C)C)c2ccc3ncc(-c4ccnc(C(=O)NCCCN)c4)nc3c2)c1 [Compound 146] |  |  |
| <5 | COc1cc(OC)cc(N(CCCNCC(F)(F)F)c2ccc3ncc(-c4ccnc(C(=O)NCCCN)c4)nc3c2)c1 [Compound 148] |  |  |
| 5.32 | COc1cc(OC)cc(N(CCCO)c2ccc3ncc(-c4cccnc4F)nc3c2)c1 [Compound 149] |  |  |
| 5.16 | COc1cc(OC)cc(N(CCCNCC(F)(F)F)c2ccc3ncc(-c4ccnc(C(=O)NCCCCCO)c4)nc3c2)c1 [Compound 150] | > 10 µM |  |
| 5.52 | COc1cc(OC)cc(N(CCO)c2ccc3ncc(-c4ccccc4CCO)nc3c2)c1 [Compound 151] | > 10 µM |  |
| 6.15 | COc1cc(OC)cc(N(CCO)c2ccc3ncc(-c4ccc(N5CCN(C)CC5)nc4)nc3c2)c1 [Compound 163] | 7.59 µM |  |
| 6.56 | COc1cc(OC)cc(N(CCO)c2ccc3ncc(-c4ccc(N5CCNCC5)nc4)nc3c2)c1 [Compound 165] | > 10 µM |  |
